Test results: patent US8288410B2, “3-substituted quinolinium and 7H-indolo[2,3-c]quinolinium salts as new antiinfectives” (Florida Agricultural and Mechanical University, priority 2008, dated 2012)
Read-outs that look alike come from different tables or passages of the source.

Columns and labels:
[1] = test system: Candida albicans ATTC 90028; test: Antifungal susceptibility testing, Candida albicans; format: cell-based
How it was run: (§1)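 Modified NCCLS broth microdilution, samples serially diluted from 20 μg/mL top concentration, inocula per 0.5 McFarland (C. albicans in SDB or RPMI 1640; C. neoformans in SDB; A. fumigatus in YM broth or RPMI-1640 + 5% Alamar Blue). IC50 from percent growth versus concentration; MIC read visually as lowest concentration without detectable growth.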

[2] = test system: Cryptococcus neoformans ATCC 90113; test: Antifungal susceptibility testing, Cryptococcus neoformans; format: cell-based
How it was run: as §1

MRSA = test: Antibacterial susceptibility testing, MRSA; format: cell-based, methicillin resistant Staphylococcus aureus
How it was run: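 MRSA, sourced from the American Type Culture Collection, was tested for susceptibility with a modified National Committee for Clinical Laboratory Standards method. DMSO sample solutions were serially diluted in saline and placed in duplicate in 96 well microplates. Broth-diluted bacterial suspensions, standardized to 0.5 McFarland, brought each well to 200 μL, with the highest test concentration at 20 μg/mL.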

[3] = test system: Aspergillus fumigatus ATCC 90906; test: Antifungal susceptibility testing, Aspergillus fumigatus; format: cell-based; details: for IC50: ATCC90906, read-out: A fu IC50; for IC50 / A fu IC50: Aspergillus fumigatus
How it was run: as §1

Vero Cells = test: Cytotoxicity, Vero cells; format: cell-based
[4] = ATTC90028, Table 2, read-out: Ca IC50
[5] = ATTC90028, Table 2, read-out: Ca MFC
[6] = ATTC90028, Table 2, read-out: Ca MIC
[7] = ATCC90113, Table 2, read-out: Cn IC50
[8] = ATCC90113, Table 2, read-out: Cn MFC
[9] = ATCC90113, Table 2, read-out: Cn MIC
[10] = Staphylococcus aureus, Table 2, read-out: MRSA IC50
[11] = Staphylococcus aureus, Table 2, read-out: MRSA MIC

SMILES	A fu MFC [3] [µg/mL]	A fu MIC [3] [µg/mL]	TC50 Vero Cells (Vero Cells; Table 2) [µg/mL]	Ca IC50 ([1]; Table 2) [µg/mL]	Ca MFC ([1]; Table 2)	Ca MIC ([1]; Table 2) [µg/mL]	Cn IC50 ([2]; Table 2) [µg/mL]	Cn MFC ([2]; Table 2)	Cn MIC ([2]; Table 2) [µg/mL]	MRSA IC50 (MRSA; Table 2) [µg/mL]	MRSA MFC (MRSA; Table 2) [µg/mL]	MRSA MIC (MRSA; Table 2) [µg/mL]	A fu IC50 ([3]; Table 2)	TC50 Vero Cells (Vero Cells; Table 3) [µg/mL]	also measured
C[n+]1cc(N(CCCCCC2CCCCC2)c2ccc3ccccc3c2)cc2ccccc21 [EVK-III-001]	3.1	1.6	9.0												IC50 [1, 4]: 0.2 µg/mL; MFC [1, 5]: 3.1 µg/mL; MIC [1, 6]: 0.39 µg/mL; IC50 [2, 7]: 0.35 µg/mL; MFC [2, 8]: 1.6 µg/mL; MIC [2, 9]: 0.78 µg/mL; IC50 (MRSA; [10]): 0.3 µg/mL; MIC (MRSA; [11]): 0.78 µg/mL; IC50 ([3]; Table 2): 0.95 µg/mL
C[n+]1cccc(N(CCCCCC2CCCCC2)c2ccc3ccccc3c2)c1 [EVK-III-002]	6.3	1.6	6.0												IC50 [1, 4]: 0.6 µg/mL; MFC [1, 5]: 13 µg/mL; MIC [1, 6]: 1.6 µg/mL; IC50 [2, 7]: 0.85 µg/mL; MFC [2, 8]: 1.6 µg/mL; MIC [2, 9]: 1.6 µg/mL; IC50 (MRSA; [10]): 0.45 µg/mL; MIC (MRSA; [11]): 0.78 µg/mL; IC50 ([3]; Table 2): 1 µg/mL
Clc1ccc(Nc2cc3ccccc3[n+](CCCCCC3CCCCC3)c2)cc1.[I-] [JRE-2-83-1]			12.5	2.0	— ((-) = >20 μg/mL)	25	1.0	— ((-) = >20 μg/mL)	1.6	0.50	1.6	0.78	— ((-) = >20 μg/mL)		
FC(F)(F)c1ccc2[nH]c3c[n+](CCCCCC4CCCCC4)c4ccccc4c3c2c1.[I-] [JRE-3-4-1]														10.5	Ca IC50 ([1]; Table 3): 2.0 µg/mL; Ca MFC ([1]; Table 3): 13 µg/mL; Ca MIC ([1]; Table 3): 6.3 µg/mL; Cn IC50 ([2]; Table 3): 9.0 µg/mL; Cn MFC ([2]; Table 3): — ((-) = >20 μg/mL); Cn MIC ([2]; Table 3): — ((-) = >20 μg/mL); MRSA IC50 (MRSA; Table 3): 1.0 µg/mL; MRSA MFC (MRSA; Table 3): 3.1 µg/mL; MRSA MIC (MRSA; Table 3): 1.6 µg/mL; A fu IC50 ([3]; Table 3): 10 µg/mL
Clc1ccc2c(c1)[nH]c1c[n+](CCCCCC3CCCCC3)c3ccccc3c12.[I-] [JRE-3-10-1]														9.3	Ca IC50 ([1]; Table 3): >20 µg/mL; Ca MFC ([1]; Table 3): — ((-) = >20 μg/mL); Ca MIC ([1]; Table 3): — ((-) = >20 μg/mL); Cn IC50 ([2]; Table 3): >20 µg/mL; Cn MFC ([2]; Table 3): — ((-) = >20 μg/mL); Cn MIC ([2]; Table 3): — ((-) = >20 μg/mL); MRSA IC50 (MRSA; Table 3): 5.0 µg/mL; MRSA MFC (MRSA; Table 3): — ((-) = >20 μg/mL); MRSA MIC (MRSA; Table 3): 25 µg/mL; A fu IC50 ([3]; Table 3): >20 µg/mL
C[n+]1cc2c(c3cc(Cl)ccc3n2CCCCCC2CCCCC2)c2ccccc21.[I-] [JRE-3-13-1, 10-Chloro-7-(5-cyclohexyl-pentyl)-5-methyl-7H-indolo[2,3-c]quinolin-5-ium iodide]	25	6.3												>10	IC50 ([1]; ATTC90028, Table 3, read-out: Ca IC50): 0.9 µg/mL; MFC ([1]; ATTC90028, Table 3, read-out: Ca MFC): 1.6 µg/mL; MIC ([1]; ATTC90028, Table 3, read-out: Ca MIC): 1.6 µg/mL; IC50 ([2]; ATCC90113, Table 3, read-out: Cn IC50): 0.9 µg/mL; MFC ([2]; ATCC90113, Table 3, read-out: Cn MFC): 1.6 µg/mL; MIC ([2]; ATCC90113, Table 3, read-out: Cn MIC): 1.6 µg/mL; IC50 (MRSA; Staphylococcus aureus, Table 3, read-out: MRSA IC50): 0.5 µg/mL; MFC (MRSA; Staphylococcus aureus, Table 3, read-out: MRSA MFC): 0.8 µg/mL; MIC (MRSA; Staphylococcus aureus, Table 3, read-out: MRSA MIC): 0.8 µg/mL; IC50 ([3]; Table 3): 2 µg/mL
C[n+]1cc(N(CCCCCC2CCCCC2)c2ccc(C(F)(F)F)cc2)cc2ccccc21.[I-] [JRE-3-20-1]	6.3	3.1	25	0.65	3.1 µg/mL	1.6	0.65	3.1 µg/mL	1.6	0.40	1.6	0.78	1.0 µg/mL		
C[n+]1cc(N(CCCCCC2CCCCC2)c2cccc(C(F)(F)F)c2)cc2ccccc21.[I-] [JRE-3-61-1]	10	2.5	>10	1.0	2.5 µg/mL	2.5	0.85	2.5 µg/mL	1.3	0.45	1.3	0.63	1.5 µg/mL		
COc1ccc(N(CCCCCC2CCCCC2)c2cc3ccccc3[n+](C)c2)cc1.[I-] [JRE-3-68-1]	10	1.3	>10	0.80	1.3 µg/mL	1.3	0.50	5.0 µg/mL	1.3	0.50	1.3	1.3	0.80 µg/mL		
COc1cccc(N(CCCCCC2CCCCC2)c2cc3ccccc3[n+](C)c2)c1.[I-] [JRE-3-69-1]	10	1.3	>10	0.85	2.5 µg/mL	2.5	0.55	5.0 µg/mL	1.3	0.50	1.3	1.3	0.70 µg/mL		
C[n+]1cc2c(c3ccc(Cl)cc3n2CCCCCC2CCCCC2)c2ccccc21.[I-] [JRE-3-84-1]	5.0	2.5												>10	Ca IC50 ([1]; Table 3): 0.70 µg/mL; Ca MFC ([1]; Table 3): 2.5 µg/mL; Ca MIC ([1]; Table 3): 1.3 µg/mL; Cn IC50 ([2]; Table 3): 0.80 µg/mL; Cn MFC ([2]; Table 3): 2.5 µg/mL; Cn MIC ([2]; Table 3): 1.3 µg/mL; MRSA IC50 (MRSA; Table 3): 0.80 µg/mL; MRSA MFC (MRSA; Table 3): 1.3 µg/mL; MRSA MIC (MRSA; Table 3): 1.3 µg/mL; A fu IC50 ([3]; Table 3): 1.5 µg/mL
Clc1cccc(Nc2cc3ccccc3[n+](CCCCCC3CCCCC3)c2)c1.[I-] [JRE-3-88-1]		6.3	12.5	2.0	13 µg/mL	6.3	2.0	50 µg/mL	3.1	0.55	1.6	0.78	3.5 µg/mL		
